Test [1] deals with varicella zoster virus DNA polymerase (Varicella-zoster virus (strain Dumas) (HHV-3) (Human herpesvirus 3), UniProt P09252). The test can be described thus: VZV polymerase assay (AlphaLISA). To be noted: VZV polymerase 0.4 nM, 30 min pre-incubation, 60 minute at 37° C. Type of test: biochemical. A digest of the protocol: (§1)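 Baculovirus/SF21-expressed polymerase (HCMV 0.2 nM, VZV 0.4 nM final) was preincubated 30 min at room temperature with compound in HEPES pH 7.5/Mg buffer. Reactions with 1.6 nM DIG-primer/template, low nM dNTPs and biotin-dUTP ran 60 min at 37 °C. AlphaLISA readout, normalized to controls, 4-parameter IC50.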
Background: In Alpha technology, singlet oxygen from a donor bead excites a nearby acceptor bead.

The subject of another test is CMV. The test can be described thus: Viral qPCR assay, CMV. It counts as cell-based. The settings on record: infected cells, viral genome copies by qPCR normalized to PPIA, read-out: CMV Cell EC50. A digest of the protocol:
(§2)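 MRC5, Vero or MeWo cells mixed with virus and added to 10-point 3-fold compound dilutions, ~72 h at 37 °C. Lysates proteinase K-treated, viral gene and PPIA copies measured by TaqMan qPCR against plasmid standard curves; normalized viral copies scaled between uninfected and DMSO-infected controls, EC50 from 4-parameter fit.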
(Quantitative PCR measures a nucleic acid by following its amplification.)

In test [2] the target is Human cytomegalovirus DNA polymerase (Human cytomegalovirus (strain AD169) (HHV-5) (Human herpesvirus 5), UniProt P08546). Kind of test: CMV polymerase assay (AlphaLISA). It counts as biochemical. To be noted: HCMV polymerase 0.2 nM, 30 min pre-incubation, 60 minute at 37° C. The method in brief: as §1
The test system of a further test is HSV1. Kind of test: Viral qPCR assay, HSV1. It counts as cell-based. The settings on record: infected cells, viral genome copies by qPCR normalized to PPIA, read-out: HSV1 Cell EC50. A digest of the protocol:
as §2

Another test relates to HSV2. The test can be described thus: Viral qPCR assay, HSV2. Type of test: cell-based. The settings on record: infected cells, viral genome copies by qPCR normalized to PPIA, read-out: HSV2 Cell EC50. A digest of the protocol: as §2

Molecules are shown by their SMILES. Read-outs that look alike come from different tables or passages of the source.

A word on the IC50: it is the point on the concentration scale where inhibition reaches its midpoint. A higher IC50 goes with weaker potency. One may read the EC50 as the concentration that produces a half-maximal response. For the compound `O=C1OC[C@@H]2C[C@@H](Oc3cnc4ncn(Cc5ccc(Cl)cc5)c(=O)c4c3)CCN12` [Example 28], the values for the half-inhibitory concentration (IC50) in test [1] and in test [2] were 60 nM and 48 nM, respectively. Also, the 50% effective concentration (EC50) in the test on CMV (Human betaherpesvirus 5, 72 h) worked out at 500 nM; in the test with HSV1 (Human alphaherpesvirus 1, 72 h), 1250 nM; in the test on HSV2 (Human alphaherpesvirus 2, 72 h) it was 884 nM.
As to `Cc1nc2cc(C3CC(O)C3)c(O[C@H]3CCN4C(=O)OC[C@@H]4C3)cc2c(=O)n1Cc1ccc(Cl)cc1` (single isomer, unassigned) [Example 61], the IC50 in test [1] is 11 nM; in test [2], 6.5 nM. The figures for the 50% effective concentration (EC50) with CMV (~72 hrs), in the test on HSV1 (~72 hrs) and in the test on HSV2 (~72 hrs) were 173 nM, 250 nM and 202 nM, respectively.
For the compound `CC(C)(O)Cc1cc(O[C@H]2CCN3C(=O)OC[C@@H]3C2)cc2c(=O)n(Cc3ccc(Cl)cc3)cnc12` [Example 48], the results for the concentration for half-maximal inhibition (IC50) in test [1] and in test [2] were 37 nM and 42 nM, respectively. Moreover, the EC50 with CMV (Human betaherpesvirus 5, 72 h) amounted to 273 nM; in the test on HSV1 (Human alphaherpesvirus 1, 72 h), 701 nM; with HSV2 (Human alphaherpesvirus 2, 72 h) it was 645 nM.
The like results for `Cc1nc2ccc(O[C@H]3CCN4C(=O)OC[C@@H]4C3)cc2c(=O)n1Cc1ccc(C#N)cc1` [Example 59] were, in that order, 29 nM, 31 nM, 347 nM, 746 nM and 561 nM.
The corresponding values for `O=C1OC[C@@H]2C[C@@H](Oc3ccc4ccn(Cc5ccc(Cl)cc5)c(=O)c4c3)CCN12` [Example 23] are 26 nM, 40 nM, 482 nM, 1320 nM and 961 nM.
Turning to `Cc1nc2cc(-c3ccn(C(F)F)n3)c(O[C@H]3CCN4C(=O)OC[C@@H]4C3)cc2c(=O)n1Cc1ccc(C#N)cc1` [Example 11], the figures for the half-inhibitory concentration (IC50) in test [1] and in test [2] were 2.5 nM and 0.55 nM, respectively. Besides, the half-maximal effective concentration (EC50) is 54 nM in the test on CMV (~72 hrs), 51 nM in the test on HSV1 (~72 hrs) and 35 nM in the test with HSV2 (~72 hrs).
Take `Cc1nc2cc(-c3cnn(C(F)F)c3)c(O[C@H]3CCN4C(=O)OC[C@@H]4C3)cc2c(=O)n1Cc1ccc(C#N)cc1` [Example 6]: the IC50 in test [1] was found to be 5 nM; in test [2], 1.8 nM. Also, the EC50 in the test with CMV (~72 hrs) amounted to 56 nM; with HSV1 (~72 hrs), 47 nM; with HSV2 (~72 hrs), 29 nM.
The corresponding values for `Cc1nc2cc(C3CC(O)C3)c(O[C@H]3CCN4C(=O)OC[C@@H]4C3)cc2c(=O)n1Cc1ccc(Cl)cc1` (single isomer, unassigned) [Example 62] are 4.8 nM, 1 nM, 57 nM, 113 nM and 57 nM.

(Values after patent US12497405B2, “Bicyclic heterocycle compounds methods of use thereof for the treatment of herpes viruses” (Merck Sharp & Dohme LLC, priority 2019, dated 2025).)
